Assay [1] deals with CTSS (Homo sapiens, UniProt P25774). Nature of the assay: Recombinant cathepsin labeling by ABPs, in-gel fluorescence. The format is binding. Conditions: increasing probe concentrations, 1 h. On the procedure:
The ABPs were tested for binding to recombinant CTSK compared to the closely related CTSB, CTSL, and CTSS, which are highly abundant and active in most biological samples. Using the in‐gel fluorescent analysis that detects the stable enzyme‐probe complex, active CTSK was labeled with each of the four probes, and significant selectivity was found in three probes GD32, GD37, and GD42 (Figure 1a). […] However, the minimum amount of active CTSK the remaining probes detected was much higher, ranging from 8 to 70 ngs, (Figure 1b).
Figure 1 In vitro evaluation of CTSK targeted compounds. a) Labeling of recombinant cathepsins by ABPs. Recombinant cathepsins were treated with increasing concentrations of ABPs for 1 h. Samples were separated by SDS‐PAGE and scanned for fluorescence by a Typhoon scanner at 635/670 nm. All probes show dose‐dependent binding to the CTSK, and have lower affinity to CTSS except GD36, b) CTSK [0.5–280 ng] was labeled with the indicated ABPs [5 µM]. Incubations were performed for 1 h at 37 °C, at pH 5.5. Samples were analyzed as described in (a). c) Recombinant cathepsins B, K, L, and S [0.5 µM] were first treated with the indicated concentrations of the inhibitor GD30 or vehicle for 1 h followed by incubation with a pan cathepsin probe GB123 [1 µM] for 1 h. Samples were analyzed as described in (a). d) Quantitative analysis of CTSK inhibition by GD30 presented in (d), data represent mean values ± standard error, n = 3. e) IC50 plot of GD30 inhibition of CTSK activity. […]
emission wavelengths of 370 and 460 nm, respectively. Cathepsin concentrations in the assay were 0.4 nM (CTSK) or 5 nM (CTSS, CTSB, and CTSL). […] For irreversible inhibitors, reaction data were fitted to the one-phase association formula in GraphPad Prism 9 software: Y=Y0 + (Plateau-Y0)*(1-exp(-K*X)) where in this case Y0 and Y represent fluorescence signal at times 0 and t, respectively, K represent the observed reaction rate kobs and X the inhibitor concentration. […]
reaction was stopped and samples were analyzed as described above. […]

Assay [2] deals with T1, CTSK (Homo sapiens, UniProt P43235).
T1 sequence (P43235 115-329): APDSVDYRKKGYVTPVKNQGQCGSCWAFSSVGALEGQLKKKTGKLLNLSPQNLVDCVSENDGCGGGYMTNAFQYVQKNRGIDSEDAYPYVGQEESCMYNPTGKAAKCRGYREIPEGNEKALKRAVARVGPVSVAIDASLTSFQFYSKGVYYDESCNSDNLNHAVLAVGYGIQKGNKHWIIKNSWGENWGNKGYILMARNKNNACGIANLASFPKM
The assay can be described thus: In vitro kinetic evaluation of cathepsin inhibition, fluorescent substrate Z-FR-AMC. The format is biochemical. Conditions: for mode of inhibition: CTSK. The text has this:
used for TLC. Phosphate Buffer Saline (PBS) was purchased from Biological Industries (pH = […]
7.4) and was used as a buffer system in all experiments if not indicated otherwise. […]
Recombinant human CTSB, CTSK, CTSL, and CTSS were supplied by B. Turk (J.
Stefan Institute).[1] […]
Fluorescent gels were scanned by a Typhoon FLA 9500 flatbed laser scanner (GE Healthcare […]
Bio-Sciences AB, Uppsala, Sweden). BioRad ChemiDox XRS+ was used for western blot […]
analysis. Olympus FV10i inverted microscope (Tokyo,Japan) with Fluoview software or Zeiss […]
Confocal LSM 980 with Airyscan (Germany) with Zen software were used for confocal […]
In vitro kinetic evaluation of labeling recombinant cathepsins:
Reactions were monitored for 30 min at 37° C in 96-well black flat-bottom microplates […]
(Greiner, Germany) using Tecan […] M1000 pro plate reader (Tecan, Switzerland), […]
substrates Z-RR-AMC (CTSL) or Z-FR-AMC (CTSS, CTSB and CTSK), and excitation and […]
emission wavelengths of 370 and 460 nm, respectively. Cathepsin concentrations in the assay were 0.4 nM (CTSK) or 5 nM (CTSS, CTSB, and CTSL). The buffer was 100 mM Na2HPO4/NaH2PO4, 50 mM NaCl, 5 mM DTT, 0,1% Peg-6000, pH 6. For irreversible inhibitors, reaction data were fitted to the one-phase association formula in GraphPad Prism 9 software: Y=Y0 + (Plateau-Y0)*(1-exp(-K*X)) where in this case Y0 and Y represent fluorescence signal at times 0 and t, respectively, K represent the observed reaction rate kobs and X the inhibitor concentration. Inactivation rates at each inhibitor concentration were […]
maximal rate of inactivation (kinact) was obtained as the asymptote from equation […]
for each X, and Kiapp is the apparent inhibition constant. Ki values were calculated from IC50 or from Kiapp using formulas Ki = Kiapp / (1 + Km/S) and IC50 = E0/2 + Kiapp, where Km stands for Michalis-Menten constant, S for substrate concentration and E0 for cathepsin concentration.
The highest inhibitor concentrations in the assay were 50 µM. Measurements were performed in several independent duplicates. Average values are presented with standard deviations. […]

pIC50, pKi: −log10 of the molar value.

Sequence of CTSS (P25774 115-331): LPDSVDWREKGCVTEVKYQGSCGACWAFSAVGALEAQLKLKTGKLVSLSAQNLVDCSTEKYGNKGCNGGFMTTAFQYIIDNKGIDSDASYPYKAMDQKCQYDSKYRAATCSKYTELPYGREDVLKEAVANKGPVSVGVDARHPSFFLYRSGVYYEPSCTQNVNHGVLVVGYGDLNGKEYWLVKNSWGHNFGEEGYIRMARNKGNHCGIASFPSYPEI

As a reminder, the pIC50 is the negative decadic logarithm of the IC50, by convention in mol/L. The low end stands for a large IC50, the high end for a small IC50. For `CC(C)C[C@H](N[C@@H](c1ccc(-c2ccc(S(=O)(=O)CCNC(=O)CCCCC[N+]3=C(/C=C/C=C/C=C4/N(C)c5ccc(S(=O)(=O)O)cc5C4(C)C)C(C)(C)c4cc(S(=O)(=O)O)ccc43)cc2)cc1)C(F)(F)F)C(=O)NC1(C#N)CC1` [GD37], in assay [1], the “labeling of CTSS relative to CTSK” value is listed as “only labeled CTSS at higher concentrations”. In addition, the mode of inhibition entry in assay [2] was “Reversible [Tight binding]”. The same compound had a negative-log IC50 (pIC50) in assay [2] (CTSK 0.4 nM, tight binding) of 9.40.
One may read the pKi as −log10 of the Ki, conventionally taken in molar units. In general, kinact refers to the maximal first-order rate at which the target is inactivated. For the compound `C#CCNC(=O)[C@H](CC(C)C)N[C@@H](c1ccc(-c2ccc(S(=O)(=O)CCNC(=O)CCCCC[N+]3=C(/C=C/C=C/C=C4/N(C)c5ccc(S(=O)(=O)O)cc5C4(C)C)C(C)(C)c4cc(S(=O)(=O)O)ccc43)cc2)cc1)C(F)(F)F` [GD32], the “labeling of CTSS relative to CTSK” value in assay [1] is “only labeled CTSS at higher concentrations”. Further, the mode of inhibition result in assay [2] was “Irreversible”. Also, in assay [2] (CTSK 0.4 nM, pH 6, 37 °C), the negative logarithm of the Ki (pKi) was 8.44, the kinact is 0.0007 ± 0.0001 s⁻¹ and the kinact/Ki is 26 ± 14 × 10^4 M^−1sec^−1.
